From patent US20250152494A1, “COSMETIC COMPOSITION CONTAINING RETINOID, EXTRACT OF CENTELLA ASIATICA AND A DIPEPTIDE” (THE BOOTS COMPANY PLC, priority 2022, published 2025) come the findings set out here.

This assay relates to IL-6. Put plainly: Retinol (Inumax)-induced IL-6 production in primary adult human dermal fibroblast cells. Particulars: lower effective retinoid concentrations (lower than 0.5% by weight of the composition). The format is cell-based. How it is done:
Primary adult human dermal fibroblast cells were incubated with 0.1% microencapsulated retinol commercially available and sold y Evonik under the trade name Inumax. Inumax was diluted in cell culture media to a final concentration of 0.1% and the dilution was used as an inflammatory reaction control. The anti-inflammatory activity of Bisabolol and Centella asiatica was compared in comparison to the control by incubating adult human dermal fibroblast cells with 0.1% inumax in supernatant in the presence of Bisabolol and Centella asiatica, both in combination with dipeptide, at a range of concentrations. Cells were incubated fro 24 hours at 37 C and 5% CO2, in the presence of the actives. At the end of incubation time the supernatant was removed for IL-6 testing. An MTT (3-(4,5-dimethylthiazol-2-yl)-2,5-diphenyltetrazolium bromide) assay was performed on the treated cells to confirm cell metabolic activity following treatment. The levels of IL-6 in supernatant were determined using the Invitrogen IL-6 assay.

With α-bisabolol, the “reducing the retinol induced IL-6 production and consequential skin sensitivity” value is recorded as “beneficial in reducing the retinol induced IL-6 production”.
